Results reported in the METLIN SMRT retention time set (Domingo-Almenara et al. 2019).

Assay: gradient 5% acetonitrile 3 min, to 50% in 2 min, to 85% in 15 min, held 3 min, 100 µL/min
Conditions: column: Zorbax Extend-C18 2.1 x 50 mm; eluents: water / acetonitrile, 0.1% formic acid
How it was run: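 Retention times of pure standards were taken from adduct peaks that were selected by computer and manually inspected. Over 3 months, mixtures of ~100 molecules were run by HPLC–quadrupole time-of-flight mass spectrometry in positive and negative ionization mode. The Zorbax Extend-C18 column (2.1 × 50 mm, 1.8 μm) ran at 100 μL/min in water and acetonitrile, each containing 0.1% formic acid, with 40 μL dead volume and 900 μL dwell volume.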

Row | RP-LC retention time [s] | SMILES
1 | 770 | CN1CCc2c(c(CNC(=O)c3cc(CN4CCOCC4)on3)nn2C)C1
2 | 720 | Cc1noc(C)c1S(=O)(=O)N1CCCC(Cn2c(C3CC3)nc3cccnc32)C1 (centres undefined)
3 | 583 | CCOC(=O)c1ccc2nc(C)cc(NC(=O)c3ccco3)c2c1
4 | 1060 | COc1ccc(-c2nnc(-c3ccc(C)c(S(=O)(=O)N4CCCCC4)c3)o2)cc1OC
5 | 868 | O=C(C1CCCN(c2nn3c(=O)c4c(nc3s2)CCCC4)C1)N1CCN(c2ccccc2F)CC1 (centres undefined)
6 | 548 | CNC(=O)c1ccc(-c2nc3cc(NS(=O)(=O)c4cnc[nH]4)ccc3n2C)cc1
7 | 586 | O=C(NCc1cccnc1)c1ccc(-c2cccs2)nc1
8 | 716 | CCCNc1cc(N2CCC(CCC(=O)NCc3ccc(C)cc3)CC2)ncn1
9 | 1030 | COC(=O)c1c(C)c(C(=O)C(C)N(C(=O)c2ccc(Cl)cc2)C2CC2)c(C)n1C (centres undefined)
10 | 690 | CCOC(=O)C(NC(=O)Nc1c(-c2cccc(C)c2)nc2ccccn12)C(C)C (centres undefined)
11 | 1040 | CCN1C(=O)COc2ccc(-c3nc(NC(=O)c4cccc(OC)c4)sc3C)cc21
12 | 822 | COC(=O)c1ccc(-c2nc3cnccn3c2Nc2cccc(C(=O)OC)c2)cc1
13 | 946 | CCCOCCOC(=O)C1=C(C)NC2=C(C(=O)C(C(=O)OC)C(C)C2)C1c1ccccc1F (centres undefined)
14 | 817 | COc1ccccc1C(=O)N1CCC(COc2ccc(C(=O)NC(C)C)cc2)CC1
15 | 721 | COc1ccccc1CC(=O)Nc1ccc2c(c1)CCC(=O)N2C
16 | 952 | CCOCCCNC(=O)c1cc2c(n(-c3ccc(C(C)C)cc3)c1=O)CCCC2=O
17 | 591 | c1ccc(-c2nc(C3CCNC3)no2)cc1 (centres undefined)
18 | 930 | O=C(NC1CCCCCCC1)C1CCN(Cc2cc3ccccc3n2Cc2cccc(Cl)c2)CC1
19 | 747 | Cc1cccc(CNC(=O)C2CCN(S(=O)(=O)c3cc(C(=O)N4CCCC4)n(C)c3)CC2)c1
20 | 940 | Cc1nc(-c2csc(S(=O)(=O)N3CCCC(C(=O)Nc4ccc(C)c(Cl)c4)C3)c2)no1 (centres undefined)
21 | 860 | COCCc1noc(C2Cc3ccccc3N2C(=O)Nc2ccc3c(c2)OCCO3)n1 (centres undefined)
22 | 775 | COc1ccccc1NC(=O)N1CCC2(CC1)NC(=O)c1ccc(Cl)cc1N2

Row | RP-LC retention time [s] | SMILES
23 | 707 | CC(C)n1c(N2CCCN(C(=O)c3ccnn3C)CC2)cc(=O)n(C(C)C)c1=O
24 | 926 | Cc1nn(-c2ccccc2)c(C)c1S(=O)(=O)N1CCC(C(=O)Nc2ccccc2)CC1
25 | 873 | c1cncc(-c2nc3ccccc3s2)c1
26 | 690 | CCOC(=O)C1C(=O)NC(N2CCc3ccccc32)=NC1c1ccco1 (centres undefined)
27 | 900 | O=S(=O)(NC1CCCC1)c1ccc(-c2nnc(C3CCC3)o2)o1
28 | 655 | Cc1ccc2nc(C(=O)NCc3cc(F)ccc3F)cn2c1
29 | 584 | NC(=O)[C@@H]1C[C@H](Oc2ccccc2)CN1C1CCCC1
30 | 639 | Cc1ccccc1CC(=O)NCC(=O)Nc1nc2ccccc2[nH]1
31 | 859 | COc1cc(CNS(=O)(=O)c2cn(C(C)C)c3ncccc23)cc(OC)c1
32 | 598 | c1cc(-c2nc(-c3ccc4c(c3)ncn4CCN3CCCCC3)no2)co1
33 | 802 | CCc1cc(=O)n(CC(=O)Nc2cc(F)cc(F)c2)c(N2CCOCC2)n1
34 | 990 | CC(C)Cn1cc(CCNS(=O)(=O)c2cccc(Br)c2)c2cccnc21
35 | 890 | O=C(Cc1cccn1-c1cccc(Cl)c1)NCc1ccc(N2CCOCC2)cc1
36 | 667 | COc1ccc(OC)c(NC(=O)N2CCN(c3cc(-c4ccccc4)ncn3)CC2)c1
37 | 646 | CC(NC(=O)Cn1cnc2cc3c(cc21)OCCO3)c1ccc2c(c1)OCCCO2 (centres undefined)
38 | 998 | Cc1ccc(CC(=O)Nc2ccc(-c3nc(Cn4nc(C)c(C)c4C)c(C)o3)cc2)cc1
39 | 557 | CN(C)C[C@@H]1CN(c2ccncn2)C[C@H]1NC(=O)c1nccc2ccccc12
40 | 1070 | Cc1c(C(=O)N2CCSCC2)cnn1-c1ccc(-c2nc(C(C)(C)C)no2)cn1
41 | 844 | O=C(Cn1nc(N2CCOCC2)c2ccccc2c1=O)Nc1cccc(Br)c1
42 | 702 | O=C(O)c1ccccc1-c1c2ccc(=O)c(O)c-2oc2c(O)c(O)ccc12
43 | 959 | Cc1ccc(S(=O)(=O)N2CC(=O)N(c3ccccc3F)C(C)(C(=O)NC3CCCC3)C2)cc1 (centres undefined)
44 | 1290 | Cc1ccc(-c2csc(NC(=O)CCCOc3ccc(Cl)cc3Cl)n2)cc1

Row | RP-LC retention time [s] | SMILES
45 | 773 | COc1ncc(C(=O)NCc2ccc(Br)cc2)cn1
46 | 1000 | CCCN1C(=O)COc2ccc(-c3csc(NC(=O)CC(C)C)n3)cc21
47 | 792 | Cc1nn2c(S(=O)(=O)N3CCCCC3)c(C)nc2s1
48 | 776 | CC1=NS(=O)(=O)N(C)C=C1C(=O)OCc1c(C)noc1C
49 | 1150 | COc1ccc(C)cc1NC(=O)N1c2ccccc2CC1c1nc(C2CC2)no1 (centres undefined)
50 | 1170 | Fc1cccc(-c2noc(-c3nnn4c3COC(c3ccc(Cl)cc3)C4)n2)c1 (centres undefined)
51 | 640 | Cc1nc(-c2ccc(S(=O)(=O)N3CCN(c4ccccn4)CC3)cc2)co1
52 | 1130 | Clc1ccc(OCCSc2nnc(-c3ccc4c(c3)OCO4)o2)cc1
53 | 1110 | COC(=O)c1ccc2c(=O)n(-c3cccc(C)c3)c(N3CCSCC3)nc2c1
54 | 689 | CCNC(=O)C1CCCN(C(=O)Nc2ccc(NC(=O)Nc3ccccc3F)cc2)C1 (centres undefined)
55 | 773 | O=C(Nc1ccccc1)C1CCCN(c2ccc3cc(S(=O)(=O)N4CCCC4)ccc3n2)C1 (centres undefined)
56 | 876 | O=[N+]([O-])c1ccc2[nH]c3nc4ccccc4nc3c2c1
57 | 586 | CCN1CCC2(CC1)OC(=O)C(C)=C2C(=O)NCCCN1CCN(c2cc(C)ccc2C)CC1
58 | 652 | COC1CCOC2(CCN(C(=O)c3ccoc3)CC2)C1 (centres undefined)
59 | 794 | O=C(Cn1nc2c(cc1=O)CCCCC2)NCCc1c[nH]c2ccc(F)cc12
60 | 803 | CCOC(=O)C1CCCN(C(=O)CCC(=O)N2CCCn3nc(-c4cn(C)c5ccccc45)cc32)C1 (centres undefined)
61 | 1120 | COC(=O)c1ccccc1NC(=O)CCCn1c(=O)c2cccn2c2ccc(Br)cc21
62 | 847 | CCS(=O)(=O)N1CCc2nc(-c3ccc(F)cc3)ncc2C1
63 | 708 | O=S(=O)(Nc1ccc(Cn2cncn2)cc1)c1cc(F)cc(F)c1
64 | 872 | CCS(=O)(=O)N1CC(=O)N(c2ccc(C(C)C)cc2)C(C)(C(=O)NCc2ccc(F)cc2)C1 (centres undefined)
65 | 726 | Cn1nc(C(=O)N2CCOCC2)c2c1CCN(C(=O)Nc1cccc(Br)c1)C2
66 | 656 | CCN(CC)CCNC(=O)CN1CC(C)Sc2ccccc21 (centres undefined)

Row | RP-LC retention time [s] | SMILES
67 | 592 | O=C(c1ccc(F)c(Cl)c1)N1CCc2nc[nH]c2C1
68 | 564 | CSCC(CO)NC(=O)/C=C/c1c(C)[nH]c(=O)[nH]c1=O (centres undefined)
69 | 595 | COc1ccc(CN2CCN(C(=O)CCC(=O)N3CCCn4nc(C)cc43)CC2)c(OC)c1OC
70 | 924 | O=C(Cn1ccc2ccc(N3CCOCC3)nc21)NCC1CCCCC1
71 | 506 | O=C(NCc1ccccn1)C1CCc2sc(C(=O)N3CCCCC3)cc2C1 (centres undefined)
72 | 572 | Nc1nc(N2CCOCC2)nc2ccccc12
73 | 792 | COc1cc(OC)cc(C(=O)N2CCC(C(=O)NCCc3csc(-c4cccs4)n3)CC2)c1
74 | 922 | O=C(Cc1cccn1-c1ccc(F)cc1)NCc1ccc(F)cc1
75 | 742 | CN1C(=O)c2cc(C(=O)N3CCN(c4ncccn4)CC3)nn2CC1(C)C(=O)NC1CCCCCC1 (centres undefined)
76 | 645 | CNC(=O)c1cn(-c2ccc(SCC(=O)Nc3ccc4c(c3)OCCO4)nn2)cn1
77 | 870 | Cc1ccc(NC(=O)C2CCCN(c3ncnc4c3nc3n4CCCCC3)C2)cc1C (centres undefined)
78 | 919 | Cc1ccc(CNC(=O)C2CCN(C(=O)N3CCOc4ccc(Cl)cc43)CC2)cc1
79 | 1210 | Cc1nc(-n2cccc2)sc1C(=O)OCc1cc(-c2ccc3c(c2)OCCO3)on1
80 | 716 | CCNC(=O)C1CCCN(c2nc3ncn(CC(=O)NCc4ccc(C)cc4)c(=O)c3s2)C1 (centres undefined)
81 | 960 | CCc1cc(C(=O)Nc2ccccc2)nc2ccnn12
82 | 770 | Cc1ccc(N2CCN(c3nc(C(=O)O)cs3)CC2)cc1
83 | 648 | COCc1c(C(=O)O)nnn1-c1ccc2c(c1)OCO2
84 | 919 | CCc1nc2ccccc2c(=O)n1Cc1noc(-c2cc(OC)c(OC)c(OC)c2)n1
85 | 713 | CNC(=O)c1ccc(-c2nc3cc(NS(=O)(=O)c4ccc(C(C)C)cc4)ccc3n2C)cc1

Row | SMILES | RP-LC retention time [s]
86 | Cc1cccc(NC(=O)N2[C@H]3CC[C@@H]2c2cnc(C)nc2C3)c1 | 663
87 | CCCN(CCC)C1CCc2cc(O)c(O)cc2C1 (centres undefined) | 641
88 | COc1ccc2c(c1)C1(CCN(C(=O)c3ccc(F)c(F)c3)C1)C(=O)N2C (centres undefined) | 634
89 | CCOCCCNC(=O)N1[C@H]2CC[C@@H]1c1cnc(-c3ccccc3)nc1C2 | 778
